{"source": "the supplement of paper PMC11208160"}
{"assay": "recombinant barcode read abundance after kanamycin selection (control-corrected) (log10(CPM+1)); higher = more efficient recombination; sequences stand for … in AGTGCAGAGAAAATCGGCCAGTTTTCTCTGCCTGCAGTCCGCATGCCGT…AGATTTATGCAGCGGACTGCCTTTCTCCCAAAGTGATAAACCGGACAGTATCATGGACCGGTTTTCCCGGTAATCCGTATTTGCAAGGTTGGTTTCACT; site = the 11-nt target", "in_short": "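Duplicate cultures were plated either on chloramphenicol/ampicillin LB agar, serving as control, or on chloramphenicol/ampicillin/kanamycin with 0.1 mM IPTG. These came from a pooled E. coli library co-electroporated with a donor plasmid, each member pairing a target with an IS621 bridge RNA target-binding loop. Recombination efficiency equals averaged, control-corrected counts per million of recombinant-junction barcodes. It is listed as log10(CPM+1).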"}
{"sequence": "GGGGCACCTTGGGTTCTAACCTGTTGCTT (site GGGGCACCTAT)", "recombinant barcode read abundance (log10)": 2.06}
{"sequence": "GGGACAGCTTGGGTTCTAACCTGTTGCCT (site GAGACAACTAG)", "recombinant barcode read abundance (log10)": 0.15}
{"sequence": "GCGCTAGCTTGGGTTCTAACCTGTTGCCT (site CCGCTAGCTAG)", "recombinant barcode read abundance (log10)": 0.0832}
{"sequence": "ACATTGCCTTGGGTTCTAACCTGTTGCCT (site ACTTTGCCTAG)", "recombinant barcode read abundance (log10)": 0}
{"sequence": "GTAGCAGCTTGGGTTCTAACCTGTTGCTC (site CTAGTAGCTGA)", "recombinant barcode read abundance (log10)": 0.146}
{"sequence": "GAGGGAGCTTGGGTTCTAACCTGTTGCAT (site GAGTGAGCTAT)", "recombinant barcode read abundance (log10)": 0.315}
{"sequence": "ACCTCGGCTTGGGTTCTAACCTGTTGCTG (site TGGCAATCTAG)", "recombinant barcode read abundance (log10)": 0.0759}
{"sequence": "TTGTATTCTTGGGTTCTAACCTGTTGCCT (site TTGTATTCTAG)", "recombinant barcode read abundance (log10)": 0.679}
{"sequence": "GGAATGTCTTGGGTTCTAACCTGTTGCCT (site GCAATGTCTAG)", "recombinant barcode read abundance (log10)": 0.0847}
{"sequence": "GGCACAGCTTGGGTTCTAACCTGTTGCCT (site GGCACGGCTAG)", "recombinant barcode read abundance (log10)": 0.067}
{"sequence": "AACAGTGCTTGGGTTCTAACCTGTTGCCT (site AACATTGCTAG)", "recombinant barcode read abundance (log10)": 0.0547}
{"sequence": "GACCTGACTTGGGTTCTAACCTGTTGCCA (site GACCTGACTTG)", "recombinant barcode read abundance (log10)": 0.463}
{"sequence": "CTCCTATCTTGGGTTCTAACCTGTTGCCT (site CTCCTATCTAG)", "recombinant barcode read abundance (log10)": 0.848}
{"sequence": "GTACTGCCTTGGGTTCTAACCTGTTGCCT (site GTACCGCCTAG)", "recombinant barcode read abundance (log10)": 0.366}
{"sequence": "GGCACTACTTGGGTTCTAACCTGTTGCCT (site GGCACTACTAG)", "recombinant barcode read abundance (log10)": 0.392}
{"sequence": "CATAACTCTTGGGTTCTAACCTGTTGCCT (site GATAACTCTAG)", "recombinant barcode read abundance (log10)": 0.331}
{"sequence": "AGGAACCCTTGGGTTCTAACCTGTTGCTA (site AGGAACCCTCA)", "recombinant barcode read abundance (log10)": 0.0647}
{"sequence": "GTGTGTTCTTGGGTTCTAACCTGTTGCCT (site GTGTGTCCTAG)", "recombinant barcode read abundance (log10)": 0.0466}
{"sequence": "TTGAGATCTTGGGTTCTAACCTGTTGCCT (site TTGACATCTAG)", "recombinant barcode read abundance (log10)": 0}
{"sequence": "CCGTAACCTTGGGTTCTAACCTGTTGCCT (site CCGTAAACTAG)", "recombinant barcode read abundance (log10)": 0.149}
{"sequence": "GTGATCCCTTGGGTTCTAACCTGTTGCAG (site GTGATCCCTCT)", "recombinant barcode read abundance (log10)": 1.79}
{"sequence": "TACAGCTCTTGGGTTCTAACCTGTTGCTT (site TACAGCTCTAA)", "recombinant barcode read abundance (log10)": 0.016}
{"sequence": "CTGGTCCCTTGGGTTCTAACCTGTTGCGG (site CTGGTCCCTCC)", "recombinant barcode read abundance (log10)": 2.72}
{"sequence": "GGAAGTTCTTGGGTTCTAACCTGTTGCCT (site GTAAGTTCTAG)", "recombinant barcode read abundance (log10)": 0.754}
{"sequence": "GCGCGTGCTTGGGTTCTAACCTGTTGCCT (site GCACGTGCTAG)", "recombinant barcode read abundance (log10)": 1.11}
{"sequence": "TAGTGATCTTGGGTTCTAACCTGTTGCCT (site TACTGATCTAG)", "recombinant barcode read abundance (log10)": 0.072}
{"sequence": "CCGTTATCTTGGGTTCTAACCTGTTGCCT (site CCGGTATCTAG)", "recombinant barcode read abundance (log10)": 0.0837}
{"sequence": "TGTAGTCCTTGGGTTCTAACCTGTTGCAT (site TGTAGTCCTAT)", "recombinant barcode read abundance (log10)": 0.097}
{"sequence": "GGCACCACTTGGGTTCTAACCTGTTGCCG (site TCTTGACCTAA)", "recombinant barcode read abundance (log10)": 0.251}
{"sequence": "GGGACGCCTTGGGTTCTAACCTGTTGCAT (site GGGACGCCTAT)", "recombinant barcode read abundance (log10)": 1.17}
{"sequence": "CTATCGACTTGGGTTCTAACCTGTTGCCT (site CTATAGACTAG)", "recombinant barcode read abundance (log10)": 0.0416}
{"sequence": "CCTTCTACTTGGGTTCTAACCTGTTGCTA (site CCTTCTACTAG)", "recombinant barcode read abundance (log10)": 0.0484}
{"sequence": "CTCTTGTCTTGGGTTCTAACCTGTTGCCA (site CGCTTGTCTCG)", "recombinant barcode read abundance (log10)": 0.391}
{"sequence": "GTTCCTGCTTGGGTTCTAACCTGTTGCCT (site GTTCCTCCTAG)", "recombinant barcode read abundance (log10)": 0.265}
{"sequence": "TCACGGACTTGGGTTCTAACCTGTTGCCT (site TCACGGACTAG)", "recombinant barcode read abundance (log10)": 1.1}
{"sequence": "CCAAGCTCTTGGGTTCTAACCTGTTGCCT (site CCAAGCACTAG)", "recombinant barcode read abundance (log10)": 0.0905}
{"sequence": "AAGCAGTCTTGGGTTCTAACCTGTTGCCT (site AAGCATTCTAG)", "recombinant barcode read abundance (log10)": 0.162}
{"sequence": "CGGCGTCCTTGGGTTCTAACCTGTTGCTA (site CGGAGTCCTTA)", "recombinant barcode read abundance (log10)": 0.0265}
{"sequence": "ATAAAAGCTTGGGTTCTAACCTGTTGCCT (site ATAAGAGCTAG)", "recombinant barcode read abundance (log10)": 0.172}
{"sequence": "GAAAGTTCTTGGGTTCTAACCTGTTGCCT (site GGAAGTTCTAG)", "recombinant barcode read abundance (log10)": 0.109}
{"sequence": "ACGCATTCTTGGGTTCTAACCTGTTGCCT (site ACGCAGTCTAG)", "recombinant barcode read abundance (log10)": 0.0603}
{"sequence": "GGGAACCCTTGGGTTCTAACCTGTTGCTT (site GGGAACCCTGA)", "recombinant barcode read abundance (log10)": 0.0941}
{"sequence": "CGTCGCACTTGGGTTCTAACCTGTTGCCT (site CTTCGCACTAG)", "recombinant barcode read abundance (log10)": 0.164}
{"sequence": "GAACCTACTTGGGTTCTAACCTGTTGCCA (site GAACCTACTTG)", "recombinant barcode read abundance (log10)": 1.16}
{"sequence": "TAGCACACTTGGGTTCTAACCTGTTGCGG (site TAGCGCACTCC)", "recombinant barcode read abundance (log10)": 0.291}
{"sequence": "CGCGATCCTTGGGTTCTAACCTGTTGCGT (site AGCGACCCTAC)", "recombinant barcode read abundance (log10)": 0.0431}
{"sequence": "TACCCGCCTTGGGTTCTAACCTGTTGCCT (site TCCCCGGCTAG)", "recombinant barcode read abundance (log10)": 0.206}
{"sequence": "GTCGCTACTTGGGTTCTAACCTGTTGCCG (site GTCACTACTCG)", "recombinant barcode read abundance (log10)": 0}
{"sequence": "ACCTTGTCTTGGGTTCTAACCTGTTGCTA (site GCCATGTCTTA)", "recombinant barcode read abundance (log10)": 0.0578}
{"sequence": "CTCGTGTCTTGGGTTCTAACCTGTTGCAT (site CTCGTGTCTAT)", "recombinant barcode read abundance (log10)": 2.88}
{"sequence": "TATGTAGCTTGGGTTCTAACCTGTTGCCC (site TATGTAGCTTG)", "recombinant barcode read abundance (log10)": 0.239}
{"sequence": "GCACGTGCTTGGGTTCTAACCTGTTGCCT (site GCTCGTGCTAG)", "recombinant barcode read abundance (log10)": 0.0446}
{"sequence": "GGTGCTCCTTGGGTTCTAACCTGTTGCAG (site GGTGCTCCTAT)", "recombinant barcode read abundance (log10)": 0.0917}
{"sequence": "TGTTCTACTTGGGTTCTAACCTGTTGCTT (site TGTTCTACTAA)", "recombinant barcode read abundance (log10)": 0.0296}
{"sequence": "ACAATATCTTGGGTTCTAACCTGTTGCCT (site ACAATATCTAG)", "recombinant barcode read abundance (log10)": 0.774}
{"sequence": "CTCTATCCTTGGGTTCTAACCTGTTGCGT (site CTCTAACCTAC)", "recombinant barcode read abundance (log10)": 0.526}
{"sequence": "GAGGACTCTTGGGTTCTAACCTGTTGCCA (site GAGGACTCTAG)", "recombinant barcode read abundance (log10)": 1.46}
{"sequence": "GGCGGTACTTGGGTTCTAACCTGTTGCCT (site GGCTGCACTAG)", "recombinant barcode read abundance (log10)": 0.197}
{"sequence": "TATTGATCTTGGGTTCTAACCTGTTGCCT (site TACTGATCTAG)", "recombinant barcode read abundance (log10)": 0.162}
{"sequence": "TGCCGCTCTTGGGTTCTAACCTGTTGCCT (site TGCCGCTCTAG)", "recombinant barcode read abundance (log10)": 1.24}
{"sequence": "CAATGGGCTTGGGTTCTAACCTGTTGCCG (site CGATGGACTCG)", "recombinant barcode read abundance (log10)": 0.179}
{"sequence": "TAGACATCTTGGGTTCTAACCTGTTGCGT (site CGCTTTACTCG)", "recombinant barcode read abundance (log10)": 0.125}
{"sequence": "GCGCTAGCTTGGGTTCTAACCTGTTGCCT (site GCGCTAGCTAG)", "recombinant barcode read abundance (log10)": 0.205}
{"sequence": "ACAAGGCCTTGGGTTCTAACCTGTTGCAT (site TGCCCCTCTCG)", "recombinant barcode read abundance (log10)": 0.263}
{"sequence": "GAATGTTCTTGGGTTCTAACCTGTTGCTT (site GAATGTTCTAA)", "recombinant barcode read abundance (log10)": 0.402}
{"sequence": "CTAAGAACTTGGGTTCTAACCTGTTGCTT (site CTAAGAACTAG)", "recombinant barcode read abundance (log10)": 0.135}
